From patent publication US20130029962A1, “Substituted Heteroaromatic Pyrazole-Containing Carboxamide and Urea Compounds as Vanilloid Receptor Ligands” (Gruenenthal GmbH, priority 2011, published 2013)

What follows are compounds tested against T1, vanilloid receptor 1 (VR1/TRPV1 receptor) (Homo sapiens, UniProt Q8NER1) (assay: Functional testing on the vanilloid receptor 1 (VR1/TRPV1): FLIPR Ca2+ influx assay, displacement of capsaicin). Details: 5 μM compound; capsaicin (Cap); human being.
T1 construct: expressed in transfected cells; host or cells: CHO K1
Type: cell-based, human being
Design: key to mode of action at VR1/TRPV1 (AG, pAG, NE), Cap: AG=agonist; NE=no effect; pAG=partial agonist
Experimental: Furthermore, preference may be given to compounds according to the invention that cause a 50 percent displacement of capsaicin, which is present at a concentration of 100 nM, in a FLIPR assay with CHO K1 cells which were transfected with the human VR1 gene at a concentration of less than 2,000 nM, preferably less than 1,000 nM, particularly preferably less than 300 nM, most particularly preferably less than 100 nM, even more preferably less than 75 nM, additionally preferably less than 50 nM, most preferably less than 10 nM.
In the process, the Ca^2+ influx is quantified in the FLIPR assay with the aid of a Ca^2+-sensitive dye (type Fluo-4, Molecular Probes Europe BV, Leiden, the Netherlands) in a fluorescent imaging plate reader (FLIPR, Molecular Devices, Sunnyvale, USA), as described hereinafter. […]
The number of cells in the suspension is set to 3×10^5 per mL and 150 μL of this suspension are in each case introduced into a recess in the cell culture plates coated as described hereinbefore. In the incubator the plates are left for two to three days at 37° C., 5% by volume of CO2 and 95% relative humidity. Subsequently, the cells are loaded with 2 μM of Fluo-4 and 0.01% by volume of Pluronic F127 (Molecular Probes Europe BV, Leiden, the Netherlands) in HBSS buffer (Hank's buffered saline solution, Gibco Invitrogen GmbH, Karlsruhe, Germany) for 30 min at 37° C., washed 3 times with HBSS buffer and after further incubation for 15 minutes at room temperature used for Ca^2+ measurement in a FLIPR assay. The Ca^2+-dependent fluorescence is in this case measured before and after the addition of substances (λex=488 nm, λem=540 nm). Quantification is carried out by measuring the highest fluorescence intensity (FC, fluorescence counts) over time.
The FLIPR protocol consists of 2 substance additions. First the compounds to be tested (10 μM) are pipetted onto the cells and the Ca^2+ influx is compared with the control (capsaicin 10 μM). This provides the result in % activation based on the Ca^2+ signal after the addition of 10 μM of capsaicin (CP). After 5 minutes' incubation, 100 nM of capsaicin are applied and the Ca^2+ influx is also determined. Desensitising agonists and antagonists lead to suppression of the Ca^2+ influx. The % inhibition is calculated compared to the maximum achievable inhibition with 10 μM of capsazepine. Triple analyses (n=3) are carried out and repeated in at least 3 independent experiments (N=4).
Starting from the percentage displacement caused by different concentrations of the compounds to be tested of general formula I, IC50 inhibitory concentrations which cause a 50-percent displacement of capsaicin were calculated. Ki values for the test substances were obtained by conversion by means of the Cheng-Prusoff equation (Cheng, Prusoff; Biochem. Pharmacol. 22, 3099-3108, 1973).
The affinity of the compounds according to the invention for the vanilloid receptor 1 (VR1/TRPV1 receptor) was determined as described above (pharmacological method I).

T1 sequence (Q8NER1 whole entry): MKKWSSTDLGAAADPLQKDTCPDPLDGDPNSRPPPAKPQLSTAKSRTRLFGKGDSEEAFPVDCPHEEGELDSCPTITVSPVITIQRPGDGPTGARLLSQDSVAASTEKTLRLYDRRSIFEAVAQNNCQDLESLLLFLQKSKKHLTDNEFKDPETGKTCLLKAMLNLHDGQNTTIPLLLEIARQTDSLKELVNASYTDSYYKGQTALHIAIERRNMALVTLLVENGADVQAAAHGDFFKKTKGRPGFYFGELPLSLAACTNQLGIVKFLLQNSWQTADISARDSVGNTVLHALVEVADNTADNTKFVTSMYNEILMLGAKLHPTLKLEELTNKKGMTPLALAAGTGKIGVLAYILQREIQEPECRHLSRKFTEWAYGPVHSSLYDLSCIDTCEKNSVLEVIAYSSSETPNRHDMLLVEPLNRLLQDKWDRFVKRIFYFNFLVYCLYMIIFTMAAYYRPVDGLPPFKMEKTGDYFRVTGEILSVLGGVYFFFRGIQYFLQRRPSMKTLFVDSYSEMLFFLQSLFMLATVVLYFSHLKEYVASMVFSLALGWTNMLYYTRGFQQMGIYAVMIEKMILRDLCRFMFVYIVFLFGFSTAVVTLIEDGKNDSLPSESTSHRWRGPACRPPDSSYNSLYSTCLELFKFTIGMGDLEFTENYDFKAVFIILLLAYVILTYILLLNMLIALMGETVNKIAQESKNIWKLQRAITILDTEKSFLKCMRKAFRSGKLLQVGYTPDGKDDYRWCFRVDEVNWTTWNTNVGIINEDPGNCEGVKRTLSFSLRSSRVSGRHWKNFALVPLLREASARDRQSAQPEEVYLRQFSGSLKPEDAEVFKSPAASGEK

inhibition (as a percentage) at the concentration after @, Cap	SMILES
60%@5 μM	CC(C(=O)NCc1cc(C(F)(F)F)nn1-c1cccc(Cl)c1)c1ccc(C(=O)Nc2ccccc2)nc1 (stereo not drawn) [Example 57]

Same assay, conditions: 5 μM compound; capsaicin (Cap); human being; read-out: inhibition (as a percentage) at the concentration after @, Cap

inhibition at 5 µM	SMILES
77%	CC(C(=O)NCc1cc(C(C)(C)C)nn1-c1cccc(Cl)c1)c1ccc(C(N)=O)nc1 (stereo not drawn) [Example 56, 5-(1-((3-tert-butyl-1-(3-chlorophenyl)-1H-pyrazol-5-yl)methylamino)-1-oxopropan-2-yl)picolinamide]
24%	CC(C(=O)NCc1cc(C(F)(F)F)nn1-c1cccc(Cl)c1)c1ccc(C(=O)Nc2ccc(C(F)(F)F)cc2)nc1 (stereo not drawn) [Example 59, 5-(1-((1-(3-chlorophenyl)-3-(trifluoromethyl)-1H-pyrazol-5-yl)methylamino)-1-oxopropan-2-yl)-N-(4-(trifluoromethyl)phenyl)picolinamide]
53%	CC(C(=O)NCc1cc(C(F)(F)F)nn1-c1cccc(Cl)c1)c1cnc(C(=O)Nc2ccccc2)nc1 (stereo not drawn) [Example 62, 5-(1-((1-(3-chlorophenyl)-3-(trifluoromethyl)-1H-pyrazol-5-yl)methylamino)-1-oxopropan-2-yl)-N-phenylpyrimidine-2-carboxamide]

Further lines, the compound ahead of its results:

SMILES	inhibition at 5 µM
O=C(NCc1cc(C(F)(F)F)nn1-c1cccc(F)c1)Nc1ccc(CO)nc1 [Example 33, 1-((1-(3-fluorophenyl)-3-(trifluoromethyl)-1H-pyrazol-5-yl)methyl)-3-(6-(hydroxymethyl)pyridin-3-yl)urea]	41%
COc1ccc(-n2nc(C(F)(F)F)cc2CNC(=O)Nc2ccc(CO)nc2)cc1C [Example 37, 1-(6-(hydroxymethyl)pyridin-3-yl)-3-((1-(4-methoxy-3-methylphenyl)-3-(trifluoromethyl)-1H-pyrazol-5-yl)methyl)urea]	41%
O=C(NCc1cc(C(F)(F)F)nn1-c1cccc(Cl)c1)Nc1ccc(CCO)nc1 [Example 52, 1-((1-(3-chlorophenyl)-3-(trifluoromethyl)-1H-pyrazol-5-yl)methyl)-3-(6-(2-hydroxyethyl)pyridin-3-yl)urea]	45%
COCCNc1ccc(NC(=O)NCc2cc(C(C)(C)C)nn2-c2cccc(Cl)c2)cn1 [Example 68, 1-((3-tert-butyl-1-(3-chlorophenyl)-1H-pyrazol-5-yl)methyl)-3-(6-(2-methoxyethylamino)pyridin-3-yl)urea]	73%

Same assay, conditions: capsaicin (Cap) as stimulus; Ki from IC50 by Cheng-Prusoff; read-out: (f) Ki (human being) [nM] Cap

Ki	SMILES
8 nM	CC(C(=O)NCc1cc(C(F)(F)F)nn1-c1cccc(Cl)c1)c1ccc(CCO)nc1 (stereo not drawn) [Example 51, N-((1-(3-chlorophenyl)-3-(trifluoromethyl)-1H-pyrazol-5-yl)methyl)-2-(6-(2-hydroxyethyl)pyridin-3-yl)propanamide]
44 nM	CC(C(=O)NCc1cc(C(F)(F)F)nn1-c1cccc(Cl)c1)c1ccc(COCCO)nc1 (stereo not drawn) [Example 53, N-((1-(3-chlorophenyl)-3-(trifluoromethyl)-1H-pyrazol-5-yl)methyl)-2-(6-((2-hydroxyethoxy)methyl)pyridin-3-yl)propanamide]
23 nM	CC(C(=O)NCc1cc(C(F)(F)F)nn1-c1cccc(Cl)c1)c1ccc(C(N)=O)nc1 (stereo not drawn) [Example 55, 5-(1-((1-(3-chlorophenyl)-3-(trifluoromethyl)-1H-pyrazol-5-yl)methylamino)-1-oxopropan-2-yl)picolinamide]
5 nM	CC(C(=O)NCc1cc(C(F)(F)F)nn1-c1cccc(Cl)c1)c1ccc(C(=O)Nc2ccc(F)cc2)nc1 (stereo not drawn) [Example 58, 5-(1-((1-(3-chlorophenyl)-3-(trifluoromethyl)-1H-pyrazol-5-yl)methylamino)-1-oxopropan-2-yl)-N-(4-fluorophenyl)picolinamide]

Continued, compound first:

SMILES	Ki
Cc1cccc(-n2nc(C(F)(F)F)cc2CNC(=O)Nc2ccc(CO)nc2)c1 [Example 36, 1-(6-(hydroxymethyl)pyridin-3-yl)-3-((1-m-tolyl-3-(trifluoromethyl)-1H-pyrazol-5-yl)methyl)urea]	101 nM
O=C(NCc1cc(C(F)(F)F)nn1-c1cccc(Cl)c1)Nc1cnc(CO)c(F)c1 [Example 50, 1-((1-(3-chlorophenyl)-3-(trifluoromethyl)-1H-pyrazol-5-yl)methyl)-3-(5-fluoro-6-(hydroxymethyl)pyridin-3-yl)urea]	24 nM
CC(C(=O)NCc1cc(C(C)(C)C)nn1-c1cccc(Cl)c1)c1ccc(C(=O)Nc2ccc(F)cc2)nc1 (stereo not drawn) [Example 60, 5-(1-((3-tert-butyl-1-(3-chlorophenyl)-1H-pyrazol-5-yl)methylamino)-1-oxopropan-2-yl)-N-(4-fluorophenyl)picolinamide]	4 nM
CC(C(=O)NCc1cc(C(C)(C)C)nn1-c1cccc(Cl)c1)c1ccc(C(=O)Nc2ccc(C(F)(F)F)cc2)nc1 (stereo not drawn) [Example 61, 5-(1-((3-tert-butyl-1-(3-chlorophenyl)-1H-pyrazol-5-yl)methylamino)-1-oxopropan-2-yl)-N-(4-(trifluoromethyl)phenyl)picolinamide]	45 nM
CC(C(=O)NCc1cc(C(F)(F)F)nn1-c1cccc(Cl)c1)c1cnc(C(=O)Nc2ccc(F)cc2)nc1 (stereo not drawn) [Example 63, 5-(1-((1-(3-chlorophenyl)-3-(trifluoromethyl)-1H-pyrazol-5-yl)methylamino)-1-oxopropan-2-yl)-N-(4-fluorophenyl)pyrimidine-2-carboxamide]	6 nM
CC(C(=O)NCc1cc(C(F)(F)F)nn1-c1cccc(Cl)c1)c1cnc(C(=O)Nc2ccc(C(F)(F)F)cc2)nc1 (stereo not drawn) [Example 64, 5-(1-((1-(3-chlorophenyl)-3-(trifluoromethyl)-1H-pyrazol-5-yl)methylamino)-1-oxopropan-2-yl)-N-(4-(trifluoromethyl)phenyl)pyrimidine-2-carboxamide]	61 nM
CC(C(=O)NCc1cc(C(C)(C)C)nn1-c1cccc(Cl)c1)c1cnc(C(=O)Nc2ccccc2)nc1 (stereo not drawn) [Example 65, 5-(1-((3-tert-butyl-1-(3-chlorophenyl)-1H-pyrazol-5-yl)methylamino)-1-oxopropan-2-yl)-N-phenylpyrimidine-2-carboxamide]	70 nM
CC(C(=O)NCc1cc(C(C)(C)C)nn1-c1cccc(Cl)c1)c1cnc(C(=O)Nc2ccc(F)cc2)nc1 (stereo not drawn) [Example 66, 5-(1-((3-tert-butyl-1-(3-chlorophenyl)-1H-pyrazol-5-yl)methylamino)-1-oxopropan-2-yl)-N-(4-fluorophenyl)pyrimidine-2-carboxamide]	3 nM
CC(C(=O)NCc1cc(C(C)(C)C)nn1-c1cccc(Cl)c1)c1cnc(C(=O)Nc2ccc(C(F)(F)F)cc2)nc1 (stereo not drawn) [Example 67, 5-(1-((3-tert-butyl-1-(3-chlorophenyl)-1H-pyrazol-5-yl)methylamino)-1-oxopropan-2-yl)-N-(4-(trifluoromethyl)phenyl)pyrimidine-2-carboxamide]	13 nM
COCCNc1ccc(NC(=O)NCc2cc(C(F)(F)F)nn2-c2cccc(Cl)c2)cn1 [Example 69, 1-((1-(3-chlorophenyl)-3-(trifluoromethyl)-1H-pyrazol-5-yl)methyl)-3-(6-(2-methoxyethylamino)pyridin-3-yl)urea]	51 nM
CC(C)(C)c1cc(CNC(=O)Nc2ccc(NCCO)nc2)n(-c2cccc(Cl)c2)n1 [Example 70, 1-((3-tert-butyl-1-(3-chlorophenyl)-1H-pyrazol-5-yl)methyl)-3-(6-(2-hydroxyethylamino)pyridin-3-yl)urea]	3 nM

Same assay, conditions: capsaicin (Cap); human being

mode of action at VR1/TRPV1 (AG, pAG, NE), Cap	SMILES
NE	COc1ccc(-n2nc(C(F)(F)F)cc2CNC(=O)Nc2ccc(CO)nc2)cc1F [Example 35, 1-((1-(3-fluoro-4-methoxyphenyl)-3-(trifluoromethyl)-1H-pyrazol-5-yl)methyl)-3-(6-(hydroxymethyl)pyridin-3-yl)urea]
NE	O=C(NCc1cc(C(F)(F)F)nn1-c1cccc(F)c1)Nc1ccc(C2CCOCC2)nc1 [Example 54, 1-((1-(3-fluorophenyl)-3-(trifluoromethyl)-1H-pyrazol-5-yl)methyl)-3-(6-(tetrahydro-2H-pyran-4-yl)pyridin-3-yl)urea]
AG	CC(C(=O)NCc1cc(C(C)(C)C)nn1-c1cccc(Cl)c1)c1ccc(C(N)=O)nc1 (stereo not drawn) [Example 56, 5-(1-((3-tert-butyl-1-(3-chlorophenyl)-1H-pyrazol-5-yl)methylamino)-1-oxopropan-2-yl)picolinamide]
AG	COCCNc1ccc(NC(=O)NCc2cc(C(C)(C)C)nn2-c2cccc(Cl)c2)cn1 [Example 68, 1-((3-tert-butyl-1-(3-chlorophenyl)-1H-pyrazol-5-yl)methyl)-3-(6-(2-methoxyethylamino)pyridin-3-yl)urea]
